Source: patent publication US20130178453A1, “Cannabinoid Agonists” (priority 2010, published 2013)
Like-named read-outs stand apart in the source and are kept apart here.

Key:
[1] = biological target: T1, hCB2 (Homo sapiens, UniProt P34972); assay: hCB2 radioligand binding assay ([3H]-CP 55,940 displacement); conditions: hCB2 IC50 (CP displ, nM, HEK), HEK membranes
Procedure: (§1) cDNA expression clones for human CB 1 (hCB1, Genbank Accession No. AY225225) and human CB2 (hCB2, Genbank Accession No. AY242132) expressed in vector pcDNA3.1+ were purchased from UMR cDNA Resource Center, Rolla, Mo. (Clone ID CNR01L000 for hCB1; CNR0200000 for hCB2).
(§2) Membranes were isolated from transfected cells as follows. Monolayers of cultured cells were washed twice with phosphate-buffered saline (PBS). […] Homogenates were centrifuged 10 minutes at 1000×g at 4° C. The supernatant was collected and was centrifuged for 1 hour at 40,000×g. The supernatant was then decanted and the resulting pellet was re-suspended in 20 mM HEPES, pH 7.4, 5 mM MgCl2, 1 mM EDTA, 10% sucrose with complete cocktail protease inhibitors. Protein concentration of membrane suspensions were measured by Bradford Protein Assay using bovine serum albumin as the standard (BioRad catalog #500-0006). Protein concentrations of membrane suspensions were adjusted with the final buffer in the range of 5 to 10 mg/mL and were stored at −80° C. until further use.
A rapid filtration technique using Millipore FB filter plates (Catalog #MADVNOB) and filtration apparatus (Millipore system Catalog MAVM0960R) with vacuum aspiration was used to harvest and rinse labeled membranes (8 times with 0.2 mL of chilled binding buffer). […] Binding data were analyzed using GraphPad Prism (GraphPad Software, Inc. San Diego, Calif.).

[2] = biological target: T1, hCB2; assay: hCB2 GTPγS agonist assay (HEK-293 membranes); assay type: biochemical
Procedure: as §1, §2
^35S GTPγS binding assays were performed by incubating recombinant cell membranes prepared above (5 μg) in the presence of scintillation proximity assay beads (SPA beads, Catalog #RPNQ0252 GE Healthcare, Buckinghamshire, England) in GTPγS binding buffer [50 mM HEPES (pH 7.4), 100 mM NaCl, 5 mM MgCl2, 0.001% saponin (Sigma catalog #S4521)] supplemented with 20 uM GDP (Sigma catalog #G7127) in the presence or absence of test compound. The reaction was carried out in 96-well microplates with 0.1 nM [^35S]GTPγS (specific activity=1250 Ci/mmol; Perkin Elmer catalog #NEG030X250UC) in a final volume of 100 μL. After a 90 min room temperature incubation, the reaction was analyzed using a scintillation counter (Perkin Elmer Microbeta instrument). Binding data were analyzed using GraphPad Prism.

[3] = biological target: T2, hCB1 (Homo sapiens, UniProt P21554); assay: hCB1 cAMP agonist assay (HEK-293 cells); assay type: cell-based
[4] = biological target: T1, hCB2; assay: hCB2 cAMP agonist assay (HEK-293 cells); assay type: cell-based
Procedure: as §1
cAMP assays were performed in HEK-293 cells stably expressing human CB 1 or CB2 receptors. […] Cells suspensions were centrifuged and the cells were washed once with PBS, were centrifuged again, and the cells were resuspended in HBSS (Hank's Balanced Salt Solution, Cellgro, Cat #21-022-CV) solution containing 10 mM HEPES and 0.1% fatty acid free BSA (Sigma, Cat #A0281). Cell suspensions were prepared at 1,500,000 cells per mL. Stock solutions of test substances (10 mM) in DMSO were diluted to 1 mM using 30% DMSO as diluent. Test substances of solutions (1 mM) were further diluted down to 3× of final assay concentrations in the above HBSS buffer containing 0.1% BSA in the presence of 90 uM forskolin (Sigma Cat#F6886). To perform the assay, 20 μL of cell suspension (1,500,000 cells/mL) were added to each well in 96 well plate and treated with 10 μL test substance solution diluted as described above. Cells and compounds were incubated at 37° C. for 30 minutes. Cells were lysed and cAMP concentration was measured using DiscoveRx-XS+ cAMP assay kit (DiscoveRx Corporation Ltd., Fremont, Calif., USA, Cat #90-0075-03), following the manufacturer's protocol. GraphPad Prism software was used to calculate EC50 values using sigmoidal dose response curve fitting. The maximal amount of cAMP produced by forskolin was defined as 100%.

[5] = biological target: T2, hCB1; assay: hCB1 radioligand binding assay ([3H]-CP 55,940 displacement); conditions: hCB1 IC50 (CP displ, nM, HEK), HEK membranes
Source text: as §1
Stable, HEK-293-derived cell lines that recombinantly express hCB1 or hCB2 were established. In brief, the clone hCB1 (CNR1L) or hCB2 (CNR2) was transfected into human embryonic kidney cells (HEK-293) using Lipofectamine 2000 (Gibco, Cat#11668-019) according to the manufacturer's protocol. Transfected clones were isolated by single colony purification and clones were screened for receptor expression using a whole cell, ^3H—CP 55,940 radioligand binding assay. HEK-293 stable cells were maintained in Dulbecco's modified Eagles medium (DMEM) containing 10% fetal bovine serum, 2 mM L-glutamine and 0.5 mg/mL G-418.
Membranes were isolated from transfected cells as follows. Monolayers of cultured cells were washed twice with phosphate-buffered saline (PBS). Cells were scraped into 20 mM HEPES, pH 7.4, 10 mM EDTA containing complete cocktail protease inhibitors (Roche, Catalog #11 697 498 001), and were homogenized by an electric-powered mechanical probe homogenizer (Omni GLH; probe G7-195S) for 40 seconds at 7000 rpm. Homogenates were centrifuged 10 minutes at 1000×g at 4° C. The supernatant was collected and was centrifuged for 1 hour at 40,000×g. The supernatant was then decanted and the resulting pellet was re-suspended in 20 mM HEPES, pH 7.4, 5 mM MgCl2, 1 mM EDTA, 10% sucrose with complete cocktail protease inhibitors. Protein concentration of membrane suspensions were measured by Bradford Protein Assay using bovine serum albumin as the standard (BioRad catalog #500-0006). Protein concentrations of membrane suspensions were adjusted with the final buffer in the range of 5 to 10 mg/mL and were stored at −80° C. until further use.
Radioligand binding assays were performed by incubating membranes (2-10 μg protein) prepared from HEK-293 cells expressing recombinant human cannabinoid receptors, CB 1 or CB2, at room temperature with 0.5 nM cannabinoid receptor agonist, [^3H]-CP 55,940 (Perkin Elmer, catalog #NET 1051) in 0.2 mL of binding buffer (50 mM Tris-HCl, pH 7.5, 5 mM MgCl2, 2.5 mM EDTA) and 0.1% fatty acid free bovine serum albumin (Sigma Cat. #A0821) for 90 minutes. A rapid filtration technique using Millipore FB filter plates (Catalog #MADVNOB) and filtration apparatus (Millipore system Catalog MAVM0960R) with vacuum aspiration was used to harvest and rinse labeled membranes (8 times with 0.2 mL of chilled binding buffer). The radioactivity bound to the filters was counted with 0.05 mL of liquid scintillant (UltraGold MV, PerkinElmer catalog #6013159) in a scintillation counter (Perkin Elmer Microbeta instrument). Nonspecific binding was determined in the presence of unlabeled 1 μM CP 55,940 (Sigma Aldrich, catalog #C1112). Binding data were analyzed using GraphPad Prism (GraphPad Software, Inc. San Diego, Calif.).

[6] = GTPγS agonist, HEK membranes, read-out: hCB2 EC50 (GTPyS ag, nM, HEK)
[7] = cAMP agonist, HEK, 96-well, read-out: hCB1 EC50 (cAMP ag, nM, HEK (96-well))
[8] = cAMP agonist, HEK, 96-well, read-out: hCB2 EC50 (cAMP ag, nM, HEK (96-well))

T1 sequence (P34972 whole entry): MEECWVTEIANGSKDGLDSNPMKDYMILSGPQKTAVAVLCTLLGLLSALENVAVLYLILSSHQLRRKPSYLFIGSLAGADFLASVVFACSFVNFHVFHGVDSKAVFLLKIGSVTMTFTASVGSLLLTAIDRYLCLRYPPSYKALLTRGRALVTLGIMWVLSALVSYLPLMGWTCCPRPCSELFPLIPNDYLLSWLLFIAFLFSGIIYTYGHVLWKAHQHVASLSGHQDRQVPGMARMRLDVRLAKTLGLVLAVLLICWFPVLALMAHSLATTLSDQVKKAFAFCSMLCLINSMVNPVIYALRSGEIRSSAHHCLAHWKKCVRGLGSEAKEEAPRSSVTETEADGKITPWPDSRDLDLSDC
T2 sequence (P21554 whole entry): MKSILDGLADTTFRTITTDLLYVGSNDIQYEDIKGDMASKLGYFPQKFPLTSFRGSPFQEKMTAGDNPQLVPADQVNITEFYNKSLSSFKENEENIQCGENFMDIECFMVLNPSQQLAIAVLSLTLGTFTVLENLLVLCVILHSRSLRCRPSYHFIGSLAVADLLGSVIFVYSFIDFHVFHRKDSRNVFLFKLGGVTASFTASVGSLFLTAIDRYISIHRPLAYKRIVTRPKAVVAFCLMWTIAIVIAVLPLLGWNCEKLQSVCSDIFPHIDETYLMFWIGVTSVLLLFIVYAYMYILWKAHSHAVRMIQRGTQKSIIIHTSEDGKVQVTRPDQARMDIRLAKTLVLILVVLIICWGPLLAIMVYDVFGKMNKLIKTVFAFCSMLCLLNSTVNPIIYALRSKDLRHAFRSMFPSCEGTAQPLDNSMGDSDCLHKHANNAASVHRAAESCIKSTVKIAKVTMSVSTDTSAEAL

SMILES | IC50 [1] | EC50 [2, 6] | EC50 [3, 7] | EC50 [4, 8] | IC50 [5] | EC50 [2] | EC50 [3] | EC50 [4] | hCB1 EC50 (cAMP ag, nM, HEK (96-well)) ([3]; cAMP agonist, HEK, 96-well)
CCn1c(C(=O)c2c(C)n(CCN3CCOC3=O)c3ccccc23)cc2ccsc21 [Compound I-25] | < 100 nM | < 100 nM | 1000 to 10000 nM | < 100 nM | > 10000 nM |  |  |  | 
CCCn1c(C)c(C(=O)c2cc3ccsc3n2CC)c2cccc(OC)c21 [Compound I-36] | < 100 nM |  |  |  | 100 to 1000 nM | < 100 nM | 100 to 1000 nM | < 100 nM | 
C=CCn1cc(C(=O)c2cc3ccsc3n2CC)c2cnccc21 [Compound I-21] | 100 to 1000 nM |  |  |  | > 10000 nM | 100 to 1000 nM | 100 to 1000 nM | 1000 to 10000 nM | 
CCCn1c(C(=O)c2c(C)n(C)c3ccccc23)cc2ccsc21 [Compound I-53] | 100 to 1000 nM | 100 to 1000 nM |  | 100 to 1000 nM | > 10000 nM |  |  |  | NS (“Not Significant,” which means less than 30% agonist activity when compared to the positive control)
CCCn1c(C)c(C(=O)c2cc3cc(Cl)sc3n2CCC)c2ccccc21 [Compound I-49] | < 100 nM |  |  |  | 1000 to 10000 nM | < 100 nM |  | < 100 nM | NS (“Not Significant,” which means less than 30% agonist activity when compared to the positive control)
CCn1c(C(=O)c2c(C)n(CCCNS(C)(=O)=O)c3ccccc23)cc2ccsc21 [Compound I-19] | < 100 nM | < 100 nM |  | < 100 nM | 1000 to 10000 nM |  |  |  | NS (“Not Significant,” which means less than 30% agonist activity when compared to the positive control)
CCCn1c(C(=O)c2cn(C)c3ccccc23)cc2ccsc21 [Compound I-47] | < 100 nM |  | 100 to 1000 nM |  | 100 to 1000 nM | 100 to 1000 nM |  | < 100 nM | 
CCCn1c(C(=O)c2c(C)n(CCC)c3sccc23)cc2ccccc21 [Compound I-14] | 100 to 1000 nM |  |  |  | 100 to 1000 nM | 100 to 1000 nM |  | 100 to 1000 nM | NS (“Not Significant,” which means less than 30% agonist activity when compared to the positive control)
CCCn1c(C)c(C(=O)c2cc3cc(Cl)sc3[nH]2)c2c1CCCC2 [Compound I-76] | 100 to 1000 nM | 100 to 1000 nM |  | 100 to 1000 nM | > 10000 nM |  |  |  | NS (“Not Significant,” which means less than 30% agonist activity when compared to the positive control)
